# According to US8895571B2, “Isoindolinone and pyrrolopyridinone derivatives as Akt inhibitors” (Incyte Corporation, priority 2011, dated 2014):
# Experiments:
# Full length Akt2 = molecular target: T1, Full length Akt2 (Homo sapiens, UniProt P31751); test: In vitro Akt kinase enzymatic assay (HTRF), Akt2; type: biochemical; settings: 0.6 nM Akt2, substrate solution with 5 mM ATP, 25° C. 1 hr
# T1 construct: Full length Akt1 (cat #P2999), Akt2 (cat #PV3184); purchased PerkinElmer PV3184
# Procedure, shortened: (§1)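 Full-length enzyme (0.4 nM Akt1 or 0.6 nM Akt2/Akt3 in the enzyme solution) was combined with a substrate solution of 0.1 μM ULight-Crosstide plus 5 mM ATP in pH 7.8 HEPES/MgCl2/DTT/Tween20 buffer and reacted 1 hr at 25° C. The EDTA stop contained Eu anti-phospho-Crosstide; IC50 was fitted from 11-point HTRF inhibition curves.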
# Full length PKA = molecular target: T2, Full length PKA (Homo sapiens, UniProt P17612); test: PKA in vitro enzymatic assay (HTRF); type: biochemical; settings: 0.035 nM enzyme solution, substrate solution with 5 mM ATP, 25° C. 1 hr
# T2 construct: Full length PKA (cat #P2912); purchased Invitrogen P2912
# Procedure, shortened: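 Reaction buffer was 50 mM HEPES pH 7.8, 10 mM MgCl2, 5 mM DTT and 0.005% Tween20. Enzyme solution was 0.035 nM, and substrate solution was 0.1 μM fluorescein-CREBtide with 5 mM ATP. After 1 h at 25°C, EDTA plus Tb anti-pS133 antibody was added, TR-FRET was read, and IC50 was fitted from 11-point, 3-fold % inhibition curves.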
# Full length Akt1 = molecular target: T3, Full length Akt1 (Homo sapiens, UniProt P31749); test: In vitro Akt kinase enzymatic assay (HTRF), Akt1; type: biochemical; settings: 0.4 nM Akt1, substrate solution with 5 mM ATP, 25° C. 1 hr
# T3 construct: Full length Akt1 (cat #P2999); purchased PerkinElmer P2999
# Procedure, shortened: as §1
# Full length Akt3 = molecular target: T4, Full length Akt3 (Homo sapiens, UniProt Q9Y243); test: In vitro Akt kinase enzymatic assay (HTRF), Akt3; type: biochemical; settings: 0.6 nM Akt3, substrate solution with 5 mM ATP, 25° C. 1 hr
# T4 construct: Full length Akt1 (cat #P2999), Akt2 (cat #PV3184), Akt3 (cat #PV3185); purchased PerkinElmer PV3185
# Procedure, shortened: as §1
# [1] = tested on: LNCaP cells (human prostate tumor cell line); test: Akt LNCaP proliferation assay (MTS); type: cell-based; settings: 48 hours
# Method: LNCaP cells (human prostate tumor cell line) were plated in 96 well plates (COSTAR, Corning, N.Y.) in 50 μL at 10,000 cells/well in RPMI (Media Tech, Manassas, Va.), 2% fetal bovine serum (Hyclone/Thermo, Logan, Utah) and incubated overnight at 37° C., 5% CO2. […] of compound solution were added at final concentrations of 1000 nM to 0.5 nM in 3 fold dilutions for IC50 determination and plates further incubated for 48 hours. 100 μL of Cell Titer 96® Aqueous reagent, from an MTS colorimetric method for determining the number of viable cells in proliferation (Cell titer 96, Promega, Madison, Wis.) was added for 2 hours at 37° C., 5% CO2. Each plate was mixed well and read on a SpectroMax M5 automated plate reader (Molecular Devices, Sunnyvale Calif.). The ability of the compound to inhibit proliferation was reported as the inhibitor concentration required for 50% inhibition (IC50 values) of total cell proliferation. See Table 8 for data related to compounds of the examples.
# [2] = 2% fetal bovine serum, class symbols
# T4 sequence (Q9Y243 whole entry): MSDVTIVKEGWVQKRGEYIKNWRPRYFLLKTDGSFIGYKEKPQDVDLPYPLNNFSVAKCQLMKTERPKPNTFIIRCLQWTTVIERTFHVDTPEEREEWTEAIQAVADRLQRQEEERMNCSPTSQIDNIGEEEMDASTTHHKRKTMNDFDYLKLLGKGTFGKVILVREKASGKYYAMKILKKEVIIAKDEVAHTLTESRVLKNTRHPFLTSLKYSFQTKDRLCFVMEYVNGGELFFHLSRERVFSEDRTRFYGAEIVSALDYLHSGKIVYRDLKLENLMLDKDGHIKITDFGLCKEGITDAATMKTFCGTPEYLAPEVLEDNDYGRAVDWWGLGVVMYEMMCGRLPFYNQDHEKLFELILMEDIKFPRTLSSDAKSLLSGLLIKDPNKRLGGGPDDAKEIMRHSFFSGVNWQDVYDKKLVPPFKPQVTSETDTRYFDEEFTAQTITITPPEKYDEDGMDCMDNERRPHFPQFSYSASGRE
# T3 sequence (P31749 whole entry): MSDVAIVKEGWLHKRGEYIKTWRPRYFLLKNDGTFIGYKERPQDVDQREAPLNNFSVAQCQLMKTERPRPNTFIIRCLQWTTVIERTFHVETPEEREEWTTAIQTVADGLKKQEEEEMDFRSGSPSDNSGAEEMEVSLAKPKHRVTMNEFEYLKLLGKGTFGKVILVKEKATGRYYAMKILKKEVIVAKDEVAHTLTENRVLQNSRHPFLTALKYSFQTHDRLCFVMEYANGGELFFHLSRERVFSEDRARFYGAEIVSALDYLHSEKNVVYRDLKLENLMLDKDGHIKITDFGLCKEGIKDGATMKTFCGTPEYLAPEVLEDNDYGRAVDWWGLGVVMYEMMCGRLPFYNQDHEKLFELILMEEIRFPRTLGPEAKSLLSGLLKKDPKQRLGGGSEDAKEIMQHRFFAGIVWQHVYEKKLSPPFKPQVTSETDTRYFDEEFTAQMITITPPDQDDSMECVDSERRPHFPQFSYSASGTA
# T1 sequence (P31751 whole entry): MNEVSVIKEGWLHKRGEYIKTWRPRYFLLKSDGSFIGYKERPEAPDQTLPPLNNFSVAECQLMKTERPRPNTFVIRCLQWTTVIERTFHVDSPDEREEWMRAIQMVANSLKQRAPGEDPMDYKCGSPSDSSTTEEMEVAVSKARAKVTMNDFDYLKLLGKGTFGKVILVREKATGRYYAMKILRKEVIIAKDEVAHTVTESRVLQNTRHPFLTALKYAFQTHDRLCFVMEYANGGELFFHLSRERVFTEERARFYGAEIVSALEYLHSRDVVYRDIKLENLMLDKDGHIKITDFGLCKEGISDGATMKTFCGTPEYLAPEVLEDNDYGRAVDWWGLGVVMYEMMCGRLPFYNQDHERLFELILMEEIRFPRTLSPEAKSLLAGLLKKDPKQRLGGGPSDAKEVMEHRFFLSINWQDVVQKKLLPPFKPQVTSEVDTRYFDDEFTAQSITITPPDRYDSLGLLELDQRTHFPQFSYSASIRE
IC50 (Full length Akt2),IC50 (Full length PKA),IC50 (Full length Akt1),IC50 (Full length Akt3),"IC50 [1, 2]","IC50 ([1]; given as a bound, final concentrations 1000 nM to 0.5 nM)",Structure (SMILES)
< 0.5 µM,0.5 to 5 µM,< 0.5 µM,< 0.5 µM,< 0.5 µM,–,"Cn1ncc(COCC2CC2)c1-c1ccc2c(c1)CN([C@H](CN)Cc1cc(F)cc(F)c1)C2=O [Example 48, 2-[(1S)-2-amino-1-(3,5-difluorobenzyl)ethyl]-5-[4-(cyclopropylmethoxymethyl)-1-methyl-1H-pyrazol-5-yl]isoindolin-1-one]"
0.5 to 5 µM,> 5 µM,< 0.5 µM,< 0.5 µM,0.5 to 5 µM,–,"CSCc1cnn(C)c1-c1ccc2c(c1)CN([C@H](CN)Cc1cc(F)cc(F)c1)C2=O [Example 49, 2-[(1S)-2-amino-1-(3,5-difluorobenzyl)ethyl]-5-[4-(methylthio)methyl-1-methyl-1H-pyrazol-5-yl]isoindolin-1-one]"
< 0.5 µM,> 5 µM,< 0.5 µM,< 0.5 µM,< 0.5 µM,–,"CCSCc1cnn(C)c1-c1ccc2c(c1)CN([C@H](CN)Cc1cc(F)cc(F)c1)C2=O [Example 50, 2-[(1S)-2-amino-1-(3,5-difluorobenzyl)ethyl]-5-[4-(ethylthio)methyl-1-methyl-1H-pyrazol-5-yl]isoindolin-1-one]"
< 0.5 µM,< 0.5 µM,< 0.5 µM,< 0.5 µM,< 0.5 µM,–,"Cn1ncc(F)c1-c1ccc2c(c1)CN([C@H](CN)Cc1cc(F)cc(F)c1)C2=O [Example 51, 2-[(1S)-2-amino-1-(3,5-difluorobenzyl)ethyl]-5-(4-fluoro-1-methyl-1H-pyrazol-5-yl)isoindolin-1-one]"
< 0.5 µM,0.5 to 5 µM,< 0.5 µM,< 0.5 µM,< 0.5 µM,–,"Cn1ncc(Br)c1-c1ccc2c(c1)CN([C@H](CN)Cc1cc(F)cc(F)c1)C2=O [Example 52, 2-[(1S)-2-amino-1-(3,5-difluorobenzyl)ethyl]-5-(4-bromo-1-methyl-1H-pyrazol-5-yl)isoindolin-1-one]"
< 0.5 µM,0.5 to 5 µM,< 0.5 µM,< 0.5 µM,< 0.5 µM,–,"Cn1ncc(C#N)c1-c1ccc2c(c1)CN([C@H](CN)Cc1cc(F)cc(F)c1)C2=O [Example 53, 2-[(1S)-2-amino-1-(3,5-difluorobenzyl)ethyl]-5-(4-cyano-1-methyl-1H-pyrazol-5-yl)isoindolin-1-one]"
< 0.5 µM,> 5 µM,< 0.5 µM,< 0.5 µM,< 0.5 µM,–,"Cn1ncc(C#CC(C)(C)O)c1-c1ccc2c(c1)CN([C@H](CN)Cc1cc(F)cc(F)c1)C2=O [Example 54, 2-[(1S)-2-amino-1-(3,5-difluorobenzyl)ethyl]-5-[4-(3-hydroxy-3-methylbut-1-yn-1-yl)-1-methyl-1H-pyrazol-5-yl]isoindolin-1-one]"
< 0.5 µM,> 5 µM,< 0.5 µM,< 0.5 µM,< 0.5 µM,–,"Cn1nccc1-c1ccc2c(c1)CN([C@H](CN)Cc1ccccc1)C2=O [Example 55, 2-[(1S)-2-amino-1-benzyl-ethyl]-5-(1-methyl-1H-pyrazol-5-yl)isoindolin-1-one]"
< 0.5 µM,0.5 to 5 µM,< 0.5 µM,< 0.5 µM,< 0.5 µM,–,"Cn1ncc(Cl)c1-c1ccc2c(c1)CN([C@H](CN)Cc1ccccc1)C2=O [Example 56, 2-[(1S)-2-amino-1-benzyl-ethyl]-5-(4-chloro-1-methyl-1H-pyrazol-5-yl)isoindolin-1-one]"
< 0.5 µM,> 5 µM,< 0.5 µM,< 0.5 µM,< 0.5 µM,–,"Cn1ncc(Br)c1-c1ccc2c(c1)CN([C@H](CN)Cc1ccccc1)C2=O [Example 57, 2-[(1S)-2-amino-1-benzyl-ethyl]-5-(4-bromo-1-methyl-1H-pyrazol-5-yl)isoindolin-1-one]"
< 0.5 µM,> 5 µM,< 0.5 µM,< 0.5 µM,< 0.5 µM,–,"CC(C)OCc1cnn(C)c1-c1ccc2c(c1)CN([C@H](CN)Cc1ccccc1)C2=O [Example 58, 2-[(1S)-2-amino-1-benzyl-ethyl]-5-[4-(2-propoxymethyl)-1-methyl-1H-pyrazol-5-yl]isoindolin-1-one]"
< 0.5 µM,> 5 µM,< 0.5 µM,< 0.5 µM,< 0.5 µM,–,"Cn1ncc(Cl)c1-c1ccc2c(c1)CN([C@H](CN)Cc1cccc(C#N)c1)C2=O [Example 62, 3-{(2S)-3-amino-2-[5-(4-chloro-1-methyl-1H-pyrazol-5-yl)-1-oxo-1,3-dihydro-2H-isoindol-2-yl]propyl}benzonitrile]"
< 0.5 µM,> 5 µM,< 0.5 µM,< 0.5 µM,< 0.5 µM,–,"Cn1ncc(Cl)c1-c1ccc2c(c1)CN([C@H](CN)Cc1cccnc1)C2=O [Example 65, 2-[(1S)-2-amino-1-(pyridin-3-ylmethyl)ethyl]-5-(4-chloro-1-methyl-1H-pyrazol-5-yl)isoindolin-1-one]"
< 0.5 µM,0.5 to 5 µM,< 0.5 µM,< 0.5 µM,< 0.5 µM,–,"Cn1ncc(Cl)c1-c1ccc2c(c1)CN([C@H](CN)Cc1ccccn1)C2=O [Example 66, 2-[(1S)-2-amino-1-(pyridin-2-ylmethyl)ethyl]-5-(4-chloro-1-methyl-1H-pyrazol-5-yl)isoindolin-1-one]"
< 0.5 µM,0.5 to 5 µM,< 0.5 µM,< 0.5 µM,< 0.5 µM,–,"Cn1ncc(Cl)c1-c1ccc2c(c1)CN([C@H](CN)Cc1cccs1)C2=O [Example 67, 2-[(1S)-2-amino-1-(2-thienylmethyl)ethyl]-5-(4-chloro-1-methyl-1H-pyrazol-5-yl)isoindolin-1-one]"
< 0.5 µM,0.5 to 5 µM,< 0.5 µM,< 0.5 µM,< 0.5 µM,–,"Cn1ncc(Cl)c1-c1ccc2c(c1)CN([C@H](CN)Cc1ccsc1)C2=O [Example 68, 2-[(1S)-2-amino-1-(3-thienylmethyl)ethyl]-5-(4-chloro-1-methyl-1H-pyrazol-5-yl)isoindolin-1-one]"
0.5 to 5 µM,0.5 to 5 µM,< 0.5 µM,0.5 to 5 µM,> 5 µM,–,"Cn1ncc(Cl)c1-c1ccc2c(c1)CN([C@H](CN)Cc1cscn1)C2=O [Example 69, 2-[(1S)-2-amino-1-(1,3-thiazol-4-ylmethyl)ethyl]-5-(4-chloro-1-methyl-1H-pyrazol-5-yl)isoindolin-1-one]"
> 5 µM,> 5 µM,> 5 µM,> 5 µM,–,> 1 µM,"Cn1ncc(Cl)c1-c1ccc2c(c1)CN([C@H](CN)Cc1cccc(-c3ccncc3)c1)C2=O [Example 72, 2-[(1S)-2-amino-1-(3-pyridin-4-ylbenzyl)ethyl]-5-(4-chloro-1-methyl-1H-pyrazol-5-yl)isoindolin-1-one]"

Structure (SMILES),IC50 (Full length Akt2),IC50 (Full length PKA),IC50 (Full length Akt1),IC50 (Full length Akt3),"IC50 [1, 2]","IC50 ([1]; given as a bound, final concentrations 1000 nM to 0.5 nM)"
"Cn1ncc(COC2CCC2)c1-c1ccc2c(c1)CN([C@H](CN)Cc1cc(F)cc(F)c1)C2=O [Example 47, 2-[(1S)-2-amino-1-(3,5-difluorobenzyl)ethyl]-5-[4-(cyclobutoxymethyl)-1-methyl-1H-pyrazol-5-yl]isoindolin-1-one]",< 0.5 µM,0.5 to 5 µM,< 0.5 µM,< 0.5 µM,< 0.5 µM,–
